# pEC50, pIC50: −log10 of the molar value.
# Assays:
# [1] = target: T1, human recombinant 5-HT2A receptor (Homo sapiens, UniProt P28223); assay: Antagonistic activity against the 5-HT2A receptor (IP-One-Gq, CHO cells); assay type: cell-based; conditions: serotonin stimulation
# T1 construct: expressed in transfected cells; host or cells: CHO (5-HT2A-CHO)
# Experimental: The antagonistic effect of the compounds on the 5-HT2A receptor in the CHO cells expressing the human recombinant 5-HT2A receptor was assayed by using the IP-One-Gq kit (Cisbio). […] Risperidone was used as a positive control.
# [2] = target: T2, hERG potassium channel (Homo sapiens, UniProt Q12809); assay: hERG potassium channel block, automatic patch clamp (QPatch, CHO cells); assay type: cell-based; conditions: CHO cells stably expressing hERG, highest concentration 20 μM; read-out: hERG inhibition (IC50)
# T2 construct: expressed in transfected cells
# T2 sequence (Q12809 whole entry): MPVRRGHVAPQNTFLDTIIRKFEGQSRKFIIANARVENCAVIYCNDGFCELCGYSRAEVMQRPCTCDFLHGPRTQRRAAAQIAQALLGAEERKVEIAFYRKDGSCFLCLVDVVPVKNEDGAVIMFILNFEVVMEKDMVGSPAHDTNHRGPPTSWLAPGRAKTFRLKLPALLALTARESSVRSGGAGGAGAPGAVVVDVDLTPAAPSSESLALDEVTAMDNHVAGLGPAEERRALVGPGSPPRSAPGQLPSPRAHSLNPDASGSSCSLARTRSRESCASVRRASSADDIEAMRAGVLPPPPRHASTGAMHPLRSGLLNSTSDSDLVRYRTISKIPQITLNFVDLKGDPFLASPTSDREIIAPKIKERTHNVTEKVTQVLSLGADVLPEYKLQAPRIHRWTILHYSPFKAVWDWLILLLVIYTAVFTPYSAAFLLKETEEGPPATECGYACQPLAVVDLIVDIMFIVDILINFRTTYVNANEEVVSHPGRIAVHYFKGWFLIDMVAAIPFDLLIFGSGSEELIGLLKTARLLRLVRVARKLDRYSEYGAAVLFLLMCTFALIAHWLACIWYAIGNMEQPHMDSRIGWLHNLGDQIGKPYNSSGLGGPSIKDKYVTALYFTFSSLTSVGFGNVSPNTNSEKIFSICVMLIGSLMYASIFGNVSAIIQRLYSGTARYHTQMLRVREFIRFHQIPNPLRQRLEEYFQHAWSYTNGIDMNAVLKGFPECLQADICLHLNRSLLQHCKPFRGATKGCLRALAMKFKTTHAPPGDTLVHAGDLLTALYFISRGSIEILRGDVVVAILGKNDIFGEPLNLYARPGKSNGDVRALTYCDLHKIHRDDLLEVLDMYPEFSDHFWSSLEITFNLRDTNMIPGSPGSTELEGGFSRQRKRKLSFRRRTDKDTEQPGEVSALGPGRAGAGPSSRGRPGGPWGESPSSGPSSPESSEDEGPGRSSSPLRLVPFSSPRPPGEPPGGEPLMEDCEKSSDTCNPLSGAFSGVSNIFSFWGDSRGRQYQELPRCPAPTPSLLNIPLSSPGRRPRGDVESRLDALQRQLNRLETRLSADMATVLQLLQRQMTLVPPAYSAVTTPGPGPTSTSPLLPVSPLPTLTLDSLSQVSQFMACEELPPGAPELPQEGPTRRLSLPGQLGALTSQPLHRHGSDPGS
# Experimental: The hERG potassium channel block experiment was performed using the full-automatic patch-clamp technique (QPatch^HTX, Sophion, Stockholm, Sweden). The cell line is CHO cells stably expressing the hERG potassium channel. The compounds were tested at the highest test concentration of 20 μM in 3-fold dilution (n=3).
# [3] = Oil solubility test in benzyl benzoate (HPLC); assay type: physicochemical; conditions: organic solvent or mixture, thermodynamic from solid, 25° C., shaken 2 h
# Experimental: The solubility test was performed by quantitative analysis using an external standard method of high-performance liquid chromatography.
# Reference sample solution: 10 mg of reference sample was weighed, placed in a 20 mL volumetric flask, diluted to the scale with 80% acetonitrile, and shaken uniformly.
# Test sample solution: an appropriate amount of sample was dissolved in benzyl benzoate to obtain a saturated solution. The mixture was placed in a shaker and shaken at 25° C. and 800 rpm for 2 h. The sample solution was filtered, and 100 μL of filtrate was added to a 10 mL volumetric flask, diluted to the scale with 80% acetonitrile, and shaken uniformly.
# [4] = target: human recombinant D2L receptor (Homo sapiens, UniProt P14416); assay: Antagonistic activity against the D2L receptor (LANCE Ultra cAMP, CHO cells)
# human recombinant D2L receptor, sequence (P14416 whole entry): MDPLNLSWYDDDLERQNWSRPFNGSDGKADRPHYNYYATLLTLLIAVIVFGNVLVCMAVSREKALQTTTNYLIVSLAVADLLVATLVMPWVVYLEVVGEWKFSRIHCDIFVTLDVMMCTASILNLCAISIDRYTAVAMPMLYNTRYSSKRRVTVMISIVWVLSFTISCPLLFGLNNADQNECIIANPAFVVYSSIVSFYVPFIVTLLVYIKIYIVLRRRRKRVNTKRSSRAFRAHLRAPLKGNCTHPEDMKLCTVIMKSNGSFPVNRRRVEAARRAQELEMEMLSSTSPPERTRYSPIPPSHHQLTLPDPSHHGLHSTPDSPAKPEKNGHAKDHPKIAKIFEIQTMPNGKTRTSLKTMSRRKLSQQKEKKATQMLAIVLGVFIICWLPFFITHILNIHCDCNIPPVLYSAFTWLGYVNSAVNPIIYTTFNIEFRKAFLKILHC
# Experimental: The antagonistic effect of the compounds on the D2L receptor in the CHO cells expressing the human recombinant D2L receptor was assayed by using the LANCE® Ultra cAMP kit (PerkinElmer, USA). […] Amisulpride was used as a positive control.
# [5] = target: T3, human recombinant 5-HT1A receptor (Homo sapiens, UniProt P08908); assay: Agonistic activity against the 5-HT1A receptor (LANCE cAMP, HEK293 cells); assay type: cell-based; conditions: inhibition of cAMP production
# T3 construct: expressed in transfected cells; host or cells: HEK293
# T3 sequence (P08908 1-422): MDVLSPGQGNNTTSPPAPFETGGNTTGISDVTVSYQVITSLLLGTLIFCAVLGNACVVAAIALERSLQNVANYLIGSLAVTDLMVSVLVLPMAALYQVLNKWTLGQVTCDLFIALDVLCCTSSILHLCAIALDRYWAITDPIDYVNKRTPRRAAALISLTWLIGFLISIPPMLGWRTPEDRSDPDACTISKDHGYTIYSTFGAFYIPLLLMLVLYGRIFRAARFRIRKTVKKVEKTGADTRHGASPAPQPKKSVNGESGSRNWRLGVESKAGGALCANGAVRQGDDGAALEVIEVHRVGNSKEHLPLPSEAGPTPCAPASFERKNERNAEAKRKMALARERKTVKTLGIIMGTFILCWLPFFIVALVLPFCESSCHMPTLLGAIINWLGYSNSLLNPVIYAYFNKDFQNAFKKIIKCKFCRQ
# [6] = target: T4, human SERT (Homo sapiens, UniProt P31645); assay: cell-based; conditions: HEK-hSERT cells; read-out: Inhibitory activity against 5-HT transporter (IC50)
# T4 construct: expressed in transfected cells; host or cells: HEK-293 (HEK-hSERT)
# T4 sequence (P31645 whole entry): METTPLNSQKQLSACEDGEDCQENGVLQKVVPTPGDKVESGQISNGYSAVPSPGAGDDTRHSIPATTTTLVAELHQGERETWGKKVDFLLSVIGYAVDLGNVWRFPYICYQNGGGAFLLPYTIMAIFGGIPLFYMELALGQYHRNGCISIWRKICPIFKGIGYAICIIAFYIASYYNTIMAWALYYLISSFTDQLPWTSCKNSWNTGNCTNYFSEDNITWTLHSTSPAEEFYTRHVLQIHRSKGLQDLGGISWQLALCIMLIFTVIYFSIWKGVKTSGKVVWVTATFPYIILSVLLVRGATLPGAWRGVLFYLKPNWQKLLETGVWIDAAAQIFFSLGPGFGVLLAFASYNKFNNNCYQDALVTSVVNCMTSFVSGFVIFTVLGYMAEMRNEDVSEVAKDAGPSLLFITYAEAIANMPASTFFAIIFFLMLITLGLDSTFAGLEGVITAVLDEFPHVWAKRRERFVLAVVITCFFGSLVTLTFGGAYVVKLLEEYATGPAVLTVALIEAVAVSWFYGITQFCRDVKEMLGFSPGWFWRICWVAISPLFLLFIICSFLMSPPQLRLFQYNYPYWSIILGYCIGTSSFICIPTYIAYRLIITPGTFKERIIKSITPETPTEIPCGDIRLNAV
# Experimental: The inhibitory effect of the compounds on the 5-HT transporter in the HEK-293 cells expressing human SERT was evaluated by using the neurotransmitter transporter uptake assay kit (Molecular Devices).
# [7] = target: human D3 receptor (Homo sapiens, UniProt P35462); assay: cell-based
# human D3 receptor, sequence (P35462 whole entry): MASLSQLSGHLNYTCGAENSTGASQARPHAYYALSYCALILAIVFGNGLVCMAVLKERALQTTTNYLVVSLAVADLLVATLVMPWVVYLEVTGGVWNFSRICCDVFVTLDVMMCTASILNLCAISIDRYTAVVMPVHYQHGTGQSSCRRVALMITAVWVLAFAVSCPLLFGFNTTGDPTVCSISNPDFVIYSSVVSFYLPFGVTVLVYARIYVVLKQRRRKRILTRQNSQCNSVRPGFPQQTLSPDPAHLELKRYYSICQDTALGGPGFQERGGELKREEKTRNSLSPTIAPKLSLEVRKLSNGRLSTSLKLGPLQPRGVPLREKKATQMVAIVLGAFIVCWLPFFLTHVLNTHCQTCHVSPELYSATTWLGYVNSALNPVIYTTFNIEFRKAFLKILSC
# [8] = Human liver microsome assay; assay type: in vitro ADME; conditions: for half-life at 1 μM / CLint scaled at 1 μM: pH 7.41, human liver microsomes 0.5 mg/mL, compound 1 μM, NADPH 2 mM; for half-life at 1 μM: read-out: Half-life (t1/2, min); for CLint scaled at 1 μM: read-out: Intrinsic clearance (Clint, mL/min/kg)
# Experimental: Preparation of magnesium-potassium buffer solution: a 100 mM potassium buffer and 5 mM MgCl2 were preheated together to obtain a magnesium-potassium buffer at a pH of 7.41. Preparation of 0.5 mM working solution: a 10 mM compound stock solution was added to 95 μL of acetonitrile. Preparation of 1.5 μM working solution containing microsomes (0.75 mg/mL): 1.5 μL of the 0.5 mM working solution and 18.75 μL of 20 mg/mL human liver microsome solution were added to 479.75 μL of the magnesium-potassium buffer. Preparation of NADPH stock solution (6 mM, 5 mg/mL): NADPH was dissolved in the magnesium-potassium buffer. 30 μL of 1.5 μM working solution containing 0.75 mg/mL human liver microsomes were added to each of the wells of a 96-well plate, and the plate was pre-incubated at 37° C. for 5 min. For a sample at 0 min, 150 μL of acetonitrile solution containing an internal standard was added, and then 15 μL of NADPH stock solution (6 mM) was added to initiate the reaction. For samples at other time points, 15 μL of NADPH stock solution (6 mM) was directly added to initiate the reaction. Final content of components: compound (1 μM), human liver microsomes (0.5 mg/mL), and NADPH (2 mM). 150 μL of cold stop buffer containing an internal standard was added at time points of 5 min, 15 min, 30 min, and 45 min to stop the sample reaction, the plate was centrifuged at 600 rpm for 10 min and then at 6000 rpm for 15 min, and the supernatant was taken for LC-MS/MS analysis.
# A standard curve of the ln residual rate of the drug in the incubation system with respect to the incubation time was plotted by using Excel software, linear regression was performed to obtain a slope k, and the half-life T1/2 (min) and the intrinsic clearance CLint (mL/min/kg) value were calculated according to the following formula: […]
# [9] = Pharmacokinetic experiment in rats, intramuscular injection; assay type: in vivo; conditions: SD male rats, 43.3 mmol/kg, benzyl benzoate vehicle, up to day 36
# Experimental: The pharmacokinetic experiment in rats was performed on compounds 2, 3, 5, 6, 7, and 8 (non-fasting SD male rats, administered intramuscularly, at a dose of 43.3 mmol/kg, n=3). The vehicle was benzyl benzoate, the injection site was the thigh muscle of the hind limb, and about 0.3 mL of blood samples were collected from the jugular vein of rats at blood collection time points of day 0.25, day 2, day 4, day 6, day 8, day 15, day 22, day 29, and day 36. The collected blood was stored under ice-cold conditions, plasma was rapidly isolated by centrifugation and the precipitant was added, and the concentration of compound 1 (active metabolite) was quantitatively determined by LCMS.
# T1 sequence (P28223 whole entry): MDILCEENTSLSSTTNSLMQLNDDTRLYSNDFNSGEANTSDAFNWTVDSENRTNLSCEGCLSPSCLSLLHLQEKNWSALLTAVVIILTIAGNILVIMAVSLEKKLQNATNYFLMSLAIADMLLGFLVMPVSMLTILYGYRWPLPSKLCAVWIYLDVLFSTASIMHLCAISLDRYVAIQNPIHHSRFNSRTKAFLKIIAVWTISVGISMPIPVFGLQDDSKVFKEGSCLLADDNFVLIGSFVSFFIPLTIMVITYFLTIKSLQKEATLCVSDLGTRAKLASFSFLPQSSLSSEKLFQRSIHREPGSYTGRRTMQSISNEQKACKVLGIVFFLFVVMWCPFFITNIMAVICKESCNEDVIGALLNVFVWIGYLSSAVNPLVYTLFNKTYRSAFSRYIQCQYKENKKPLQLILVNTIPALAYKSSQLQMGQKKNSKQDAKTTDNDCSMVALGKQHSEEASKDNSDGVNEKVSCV
solubility at 2 h [3] [mg/mL],half-life at 1 μM [8] [min],CLint scaled at 1 μM [8] [mL/min/kg],SMILES,also measured
> 200,30,56.8,"CCCCCCCCCC(=O)OCN1C(=O)CCc2ccc(CCN3CCN(c4cc(F)cc5sccc45)CC3)cc21 [Compound 7, (7-(2-(4-(6-fluorobenzo[b]thiophen-4-yl)piperazin-1-yl)ethyl)-2-oxo-3,4-dihydroquinolin-1(2H)-yl)methyl decanoate]",Metabolic stability in human liver microsomes (in words) [8]: good metabolic stability
> 200,> 120,–,"CCCCCCCCCCCCCCCC(=O)OCN1C(=O)CCc2ccc(CCN3CCN(c4cc(F)cc5sccc45)CC3)cc21 [Compound 8, (7-(2-(4-(6-fluorobenzo[b]thiophen-4-yl)piperazin-1-yl)ethyl)-2-oxo-3,4-dihydroquinolin-1(2H)-yl)methyl palmitate]",Metabolic stability in human liver microsomes (in words) [8]: good metabolic stability; Fluctuation in the plasma concentration of the active metabolite (compound 1) [9]: minimal fluctuation
> 200,–,–,"CCCCCC(CCCCC)C(=O)OCn1c(=O)ccc2ccc(CCN3CCN(c4cc(F)cc5sccc45)CC3)cc21 [Compound 113, (7-(2-(4-(6-Fluorobenzo[b]thiophen-4-yl)piperazin-1-yl)ethyl)-2-oxoquinolin-1(2H)-yl)methyl 2-pentylheptanoate]",–
> 200,–,–,"C=CCCCCCCCCC(=O)N1C(=O)CCc2ccc(CCN3CCN(c4cc(F)cc5sccc45)CC3)cc21 [Compound 132, 7-(2-(4-(6-Fluorobenzo[b]thiophen-4-yl)piperazin-1-yl)ethyl)-1-(undec-10-enoyl)-3,4-dihydroquinolin-2(1H)-one]",–
> 200,–,–,"CCCCCCCCCC(=O)OCOC(=O)N1C(=O)CCc2ccc(CCN3CCN(c4cc(F)cc5sccc45)CC3)cc21 [Compound 133, (Decanoyloxy)methyl 7-(2-(4-(6-fluorobenzo[b]thiophen-4-yl)piperazin-1-yl)ethyl)-2-oxo-3,4-dihydroquinoline-1(2H)-carboxylate]",–
> 200,–,–,"CCCCCCCCCCCC(=O)OCn1c(=O)ccc2ccc(CCN3CCN(c4cc(F)cc5sccc45)CC3)cc21 [Compound 134, (7-(2-(4-(6-Fluorobenzo[b]thiophen-4-yl)piperazin-1-yl)ethyl)-2-oxoquinolin-1(2H)-yl)methyl dodecanoate]",–

# More lines, now with the values behind:
SMILES,solubility at 2 h [3] [mg/mL],half-life at 1 μM [8] [min],CLint scaled at 1 μM [8] [mL/min/kg],also measured
"O=C1CCc2ccc(CCN3CCN(c4cc(F)cc5sccc45)CC3)cc2N1 [Compound 1-a, 7-(2-(4-(6-fluorophenothiophen-4-yl)piperazin-1-yl)ethyl)-3,4-dihydroquinolin-2(1H)-one, reference compound]",22.4,–,–,pIC50 [1]: 7.48; pIC50 [2]: 6.04; pIC50 [4]: 8.36
O=C1CCc2ccc(CCN3CCN(c4cc(F)cc5sccc45)CC3)cc2N1CO [Compound 1],–,–,–,pEC50 [5]: 9.15; pIC50 [1]: 7.49; pIC50 [6]: 7.89; pIC50 [2]: 5.74; pEC50 [7]: 8.15; pIC50 [4]: 8.46
CC(C)OC(=O)OCN1C(=O)CCc2ccc(CCN3CCN(c4cc(F)cc5sccc45)CC3)cc21 [Compound 2],75,0.69,2530,–
CCCCCCCCCCCC(=O)OCN1C(=O)CCc2ccc(CCN3CCN(c4cc(F)cc5sccc45)CC3)cc21 [Compound 3],> 200,367,4.73,–
CC(=O)OCN1C(=O)CCc2ccc(CCN3CCN(c4cc(F)cc5sccc45)CC3)cc21 [Compound 5],23.4,0.87,2000,–
CCCCC(=O)OCN1C(=O)CCc2ccc(CCN3CCN(c4cc(F)cc5sccc45)CC3)cc21 [Compound 6],166,1,1720,–

# From patent US20260250272A1, “N-SUBSTITUTED QUINOLINONE COMPOUND, PREPARATION METHOD THEREFOR AND USE THEREOF” (VIGONVITA LIFE SCIENCES CO., LTD., priority 2022, published 2026)
